Earlier results in US20040043030A1, “Polymeric delivery systems” (Immunomedics, Inc., priority 2001, published 2004).

How the values were obtained:
tumor cells = settings: relative to doxorubicin
[1] = target: T1, human beta-D-glucuronidase (Homo sapiens, UniProt P08236); settings: Arcamone, Cancer Res., 45:5995, 1985
T1 sequence (P08236 23-651): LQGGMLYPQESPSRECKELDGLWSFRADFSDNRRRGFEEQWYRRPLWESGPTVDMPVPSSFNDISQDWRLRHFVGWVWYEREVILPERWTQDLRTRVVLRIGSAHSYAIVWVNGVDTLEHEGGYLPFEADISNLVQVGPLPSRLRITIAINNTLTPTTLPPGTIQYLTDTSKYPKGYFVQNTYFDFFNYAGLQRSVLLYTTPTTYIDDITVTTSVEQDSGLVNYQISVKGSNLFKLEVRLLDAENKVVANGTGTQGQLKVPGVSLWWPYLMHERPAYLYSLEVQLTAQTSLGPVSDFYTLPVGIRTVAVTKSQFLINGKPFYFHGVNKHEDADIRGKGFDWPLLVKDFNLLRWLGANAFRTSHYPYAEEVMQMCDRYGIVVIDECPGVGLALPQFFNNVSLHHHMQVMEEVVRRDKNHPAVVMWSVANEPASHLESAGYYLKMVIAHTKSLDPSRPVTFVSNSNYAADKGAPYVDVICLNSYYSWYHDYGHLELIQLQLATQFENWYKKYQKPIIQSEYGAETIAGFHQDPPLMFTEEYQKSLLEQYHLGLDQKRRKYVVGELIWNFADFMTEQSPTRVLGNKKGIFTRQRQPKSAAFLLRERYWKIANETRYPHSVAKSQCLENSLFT

COc1cccc2c1C(=O)c1c(O)c3c(c(O)c1C2=O)C[C@@](O)(C(=O)CO)C[C@@H]3O[C@H]1C[C@H](N2C=CCC2)[C@H](O)[C@H](C)O1 [Example 2-PDOX, 2-pyrrolinodoxorubicin]
more toxic to tumor cells than doxorubicin itself (tumor cells): 100-1000

COc1cccc2c1C(=O)c1c(O)c3c(c(O)c1C2=O)C[C@@](O)(C(=O)CO)C[C@@H]3O[C@H]1C[C@H](N)[C@@H](O)[C@H](C)O1 [epirubicin]
substrate for human beta-D-glucuronidase [1]: substrate
